Legend:
[1] = Stability of the thiol group to auto-oxidation: residual ratio of the active SH group (residual activity); assay type: physicochemical; details: 40° C.
Method: The residual ratio of the active SH group, or simply called the residual activity, as used in this application is determined as follows:
The complex of this invention and other SH-containing compounds are incubated at a certain termperature in a sodium phosphate buffer (0.1 M, pH 8.0). Aliquotes are withdrawn at intervals and immediately the active SH group contents of the samples are determined. The maximum content obtained is made 100 (%), and the active SH group content of each of the samples is expressed in percentage based on this maximum content.

[2] = Auto-oxidation of other SH-containing compounds in the presence and absence of the complex (amperometric silver titration); assay type: physicochemical; details: 37° C.
Method: In these Figures, the axis of abscissa represents the incubating time in minutes, and the axis of ordinates, the SH redidual ratio (%) of the above compounds.
The above residual ratio is measured after dissolving the sample in a sodium phosphate buffer (0.1 m, pH 8.0) in the presence of copper sulfate (5 × 10^-^7 m), and incubating at 37° C. The SH content is measured by an amperometric silver titration.

[3] = test system: damage of liver induced by D-galactosamine hydrochloride; assay: Prophylactic activity on damage of liver induced by D-galactosamine hydrochloride; assay type: in vivo, Wister female rats; details: administered beforehand; summary of Table 1
Method: The damage of liver was induced by administering D-galactosamine hydrochloride.
Wister female rats weighing 100 to 120 g (10 in a group) which had been fasted for 2 hours were used. Three groups were prepared. […] Still another group was administered only with 1 ml. of an isotonic sodium chloride solution. One hour after the administration, a solution obtained by dissolving 50 mg of D-glactosamine hydrochloride in 1 ml. of an isotonic sodium chloride solution and adjusting the pH of the solution to 7.0 with 0.1N sodium hydroxide was administered intraperitoneally.
After a lapse of 22 hours from the administration of D-galactosamine hydrochloride, blood was extracted from the abdominal aorta. GOT, GPT, bilirubin, and glucose in the plasma were measured. Furthermore, the liver was cut out, and its lipid and neutral fat were measured.

[4] = literature report; cited from earlier work

N[C@@H](CCC(=O)N[C@@H](CS)C(=O)NCC(=O)O)C(=O)O [reduced glutathione]
residual ratio of the active SH group (residual activity of the reduced glutathione) ([1]; after 6 hours, sodium phosphate buffer 0.1 M pH 8.0, FeCl3 1.2 × 10^-5 M): about 40%
residual ratio of the active SH group ([1]; after 8 hours, sodium phosphate buffer 0.1 M pH 8.0): about 20%
SH residual ratio of reduced glutathione alone ([2]; 180 minutes, final concentration 1 × 10^-3 M, pH 8.0, copper sulfate 5 × 10^-7 M): about 20%
inhibition of the D-galactosamine-induced increase (GOT, GPT, bilirubin, liver lipid, neutral fat) or decrease (glucose) [3]: inhibited

NCCS [cysteamine]
SH residual ratio of cysteamine alone ([2]; 60 minutes, sodium phosphate buffer pH 8.0, copper sulfate 5 × 10^-7 M): zero

CC(C)(S)[C@@H](N)C(=O)O [penicillamine]
SH residual ratio of penicillamine alone ([2]; 60 minutes, pH 8.0, copper sulfate 5 × 10^-7 M): about 15%

complex of dextran and insulin: literature complex of activated dextran and insulin (Acta Chem. Scand. 25, 1855-1859, 1971)
activity relative to the free insulin [4]: 1/36

— US4009264A, “Complexes of polysaccharides or derivatives thereof with reduced glutathione and process for preparing said complexes” (Meito Sangyo Kabushiki Kaisha, priority 1975, dated 1977)
